According to US7238694B2, “Rifamycin imino derivatives effective against drug-resistant microbes” (Cumbre Pharmaceuticals, Inc., priority 2004, dated 2007):
In brackets after ≈: the same amount, converted by molar mass.

Assays:
Format in all cases: cell-based
[1] = system: Staphylococcus aureus ATCC29213 rpoB^H418Y; assay: microbe, parasite or virus in culture; settings: Staphylococcus aureus, ATCC29213; rifR strain; Cation-Adjusted Mueller-Hinton Broth, 37° C.; read-out: MIC
[2] = system: Haemophilus influenzae ATCC10211; assay: MIC, microbroth dilution (NCCLS); settings: rifS strain, BHI Broth with NAD and hematin, 37° C., read-out: MIC
[3] = system: Staphylococcus aureus MT1222 gyrA^A116E grlB^S80F; assay: microbe, parasite or virus in culture; settings: cipR strain, Cation-Adjusted Mueller-Hinton Broth, 37° C., read-out: MIC
[4] = system: Streptococcus pneumoniae ATCC6303; assay: MIC, microbroth dilution (NCCLS); settings: rifS strain, THY Broth with 1 mg/mL catalase, 5% CO2, 37° C., read-out: MIC
[5] = system: Streptococcus pyogenes ATCC19615; assay: MIC, microbroth dilution (NCCLS); settings: rifS strain, THY Broth, 37° C., read-out: MIC
[6] = system: Staphylococcus epidermidis ATCC12228; assay: MIC, microbroth dilution (NCCLS); settings: rifS strain, Cation-Adjusted Mueller-Hinton Broth, 37° C., read-out: MIC
[7] = system: Staphylococcus aureus ATCC29213; assay: MIC, microbroth dilution (NCCLS); settings: rifS strain, Cation-Adjusted Mueller-Hinton Broth, 37° C., read-out: MIC

Work on COc1c(N2CCC(C(C)NC3CCN(/N=C/c4c5c(O)c6c(O)c(C)c7c(c6c4O)C(=O)[C@@](C)(O/C=C/[C@H](OC)[C@@H](C)[C@@H](OC(C)=O)[C@H](C)[C@H](O)[C@H](C)[C@@H](O)[C@@H](C)/C=C/C=C(/C)C(=O)N5)O7)CC3)C2)c(F)cc2c(=O)c(C(=O)O)cn(C3CC3)c12 (mixture of isomers) [Example 41, 3-{4-[1-(3-Carboxy-1-cyclopropyl-6-fluoro-8-methoxy-4-oxo-1,4-dihydroquinolin-7-yl)-pyrrolidin-3-yl-ethylamino]-piperidin-1-yl-aminomethylenyl}-rifamycin SV] yielded an MIC [1] of 0.06 to 16 µg/mL, an MIC [2] of 0.125 to 4 µg/mL and an MIC [3] of 0.008 to 0.125 µg/mL. It also gave an MIC [4] of 0.008 to 0.06 µg/mL, an MIC [5] of 0.008 to 0.03 µg/mL and an MIC [6] of 0.008 to 0.1 µg/mL. For the same compound, the MIC [7] was 0.008 to 1 µg/mL.
For CO[C@H]1/C=C/O[C@@]2(C)Oc3c(C)c(O)c4c(O)c(c(/C=N/NC5CCN(c6c(F)cc7c(=O)c(C(=O)O)cn(C8CC8)c7c6Cl)C5)c(O)c4c3C2=O)NC(=O)/C(C)=C\C=C\[C@H](C)[C@H](O)[C@@H](C)[C@@H](O)[C@@H](C)[C@H](OC(C)=O)[C@@H]1C (mixture of isomers) [Example 6, (R/S)-3-[1-(8-chloro-3-carboxy-1-cyclopropyl-6-fluoro-4-oxo-1,4-dihydroquinolin-7-yl)-pyrrolidin-3-ylhydrazinomethylenyl]rifamycin SV], the MIC [1] was 0.06 to 16 µg/mL (≈ 0.0551 to 14.7 µM), the MIC [2] was 0.125 to 4 µg/mL (≈ 0.115 to 3.67 µM) and the MIC [3] was 0.008 to 0.125 µg/mL (≈ 0.00735 to 0.115 µM). It also gave an MIC [4] of 0.008 to 0.06 µg/mL (≈ 0.00735 to 0.0551 µM), an MIC [5] of 0.008 to 0.03 µg/mL (≈ 0.00735 to 0.0276 µM) and an MIC [6] of 0.008 to 0.1 µg/mL (≈ 0.00735 to 0.0919 µM). For the same compound, the MIC [7] was 0.008 to 1 µg/mL (≈ 0.00735 to 0.919 µM).
With COc1c(N2CCN(/N=C/c3c4c(O)c5c(O)c(C)c6c(c5c3O)C(=O)[C@@](C)(O/C=C/[C@H](OC)[C@@H](C)[C@@H](OC(C)=O)[C@H](C)[C@H](O)[C@H](C)[C@@H](O)[C@@H](C)/C=C/C=C(/C)C(=O)N4)O6)C(C)C2)c(F)cc2c(=O)c(C(=O)O)cn(C3CC3)c12 (mixture of isomers) [Example 7, (R/S)-3-[4-(3-Carboxy-1-cyclopropyl-6-fluoro-8-methoxy-4-oxo-1,4-dihydroquinolin-7-yl)-2-methyl-piperazin-1-yl-aminomethylenyl]rifamycin SV] the MIC [1] was 0.06 to 16 µg/mL (≈ 0.0546 to 14.6 µM), the MIC [2] was 0.125 to 4 µg/mL (≈ 0.114 to 3.64 µM) and the MIC [3] was 0.008 to 0.125 µg/mL (≈ 0.00728 to 0.114 µM). For the same compound, the MIC [4] was 0.008 to 0.06 µg/mL (≈ 0.00728 to 0.0546 µM), the MIC [5] was 0.008 to 0.03 µg/mL (≈ 0.00728 to 0.0273 µM) and the MIC [6] was 0.008 to 0.1 µg/mL (≈ 0.00728 to 0.0911 µM). The MIC [7] was 0.008 to 1 µg/mL (≈ 0.00728 to 0.911 µM).
In the case of CCn1cc(C(=O)O)c(=O)c2cc(F)c(N3CCN(/N=C/c4c5c(O)c6c(O)c(C)c7c(c6c4O)C(=O)[C@@](C)(O/C=C/[C@H](OC)[C@@H](C)[C@@H](OC(C)=O)[C@H](C)[C@H](O)[C@H](C)[C@@H](O)[C@@H](C)/C=C/C=C(/C)C(=O)N5)O7)C(C)C3)c(F)c21 (mixture of isomers) [Example 8, (R/S)-3-[4-(3-Carboxy-1-ethyl-6,8-difluoro-8-4-oxo-1,4-dihydroquinolin-7-yl)-2-methyl-piperazin-1-yl-aminomethylenyl]rifamycin SV], the MIC [1] is reported as 0.06 to 16 µg/mL (≈ 0.0559 to 14.9 µM), the MIC [2] is reported as 0.125 to 4 µg/mL (≈ 0.116 to 3.72 µM) and the MIC [3] is reported as 0.008 to 0.125 µg/mL (≈ 0.00745 to 0.116 µM). The MIC [4] was 0.008 to 0.06 µg/mL (≈ 0.00745 to 0.0559 µM), the MIC [5] was 0.008 to 0.03 µg/mL (≈ 0.00745 to 0.0279 µM) and the MIC [6] was 0.008 to 0.1 µg/mL (≈ 0.00745 to 0.0931 µM). It also gave an MIC [7] of 0.008 to 1 µg/mL (≈ 0.00745 to 0.931 µM).
CO[C@H]1/C=C/O[C@@]2(C)Oc3c(C)c(O)c4c(O)c(c(/C=N/NC5CCN(c6nc7c(cc6F)c(=O)c(C(=O)O)cn7-c6ccc(F)cc6F)C5)c(O)c4c3C2=O)NC(=O)/C(C)=C\C=C\[C@H](C)[C@H](O)[C@@H](C)[C@@H](O)[C@@H](C)[C@H](OC(C)=O)[C@@H]1C (mixture of isomers) [Example 9, (R/S)-3-[1-[3-Carboxy-1-(2,4-difluoro-phenyl)-6-fluoro-4-oxo-1,4-dihydro-[1,8]naphthyridin-7-yl]-pyrrolidinyl-3-hydrazinomethylenyl]rifamycin SV] gave an MIC [1] of 0.06 to 16 µg/mL (≈ 0.0532 to 14.2 µM), an MIC [2] of 0.125 to 4 µg/mL (≈ 0.111 to 3.55 µM) and an MIC [3] of 0.008 to 0.125 µg/mL (≈ 0.0071 to 0.111 µM). It also gave an MIC [4] of 0.008 to 0.06 µg/mL (≈ 0.0071 to 0.0532 µM), an MIC [5] of 0.008 to 0.03 µg/mL (≈ 0.0071 to 0.0266 µM) and an MIC [6] of 0.008 to 0.1 µg/mL (≈ 0.0071 to 0.0887 µM). For the same compound, the MIC [7] was 0.008 to 1 µg/mL (≈ 0.0071 to 0.887 µM).
In the case of CO[C@H]1/C=C/O[C@@]2(C)Oc3c(C)c(O)c4c(O)c(c(/C=N/N(C5CCN(C)CC5)C5CCN(c6cc7c(cc6F)c(=O)c(C(=O)O)cn7C6CC6)C5)c(O)c4c3C2=O)NC(=O)/C(C)=C\C=C\[C@H](C)[C@H](O)[C@@H](C)[C@@H](O)[C@@H](C)[C@H](OC(C)=O)[C@@H]1C (mixture of isomers) [Example 11, (R/S)-3-[1-(3-Carboxy-1-cyclopropyl-6-fluoro-4-oxo-1,4-dihydroquinolin-7-yl)-pyrrolidin-3-yl-N′-(1-methyl-piperidin-4-yl)-hydrazinomethylenyl]rifamycin SV], the MIC [1] is reported as 0.06 to 16 µg/mL (≈ 0.0521 to 13.9 µM), the MIC [2] is reported as 0.125 to 4 µg/mL (≈ 0.109 to 3.47 µM) and the MIC [3] is reported as 0.008 to 0.125 µg/mL (≈ 0.00695 to 0.109 µM). It also gave an MIC [4] of 0.008 to 0.06 µg/mL (≈ 0.00695 to 0.0521 µM), an MIC [5] of 0.008 to 0.03 µg/mL (≈ 0.00695 to 0.0261 µM) and an MIC [6] of 0.008 to 0.1 µg/mL (≈ 0.00695 to 0.0869 µM). The MIC [7] was 0.008 to 1 µg/mL (≈ 0.00695 to 0.869 µM).
